In US7867976B2, “Nogo epitopic fragments for modulating immune response” (The Board of Trustees of the Leland Stanford Junior …, priority 2003, dated 2011):

Tests used:
[1] = target: Normal Mouse Serum; assay: myelin antigen microarray; positive-control feature 'Anti-mouse IgG/M' capturing immunoglobulin of the serum in column 'a. Normal'
[2] = test system: whole lymph node cells; assay: whole lymph node cell proliferation assay against Nogo and irrelevant peptides after Nogo-66 peptide immunization; type: cell-based, mice; settings: draining lymph nodes at end of experiments
Excerpt: Induction of EAE and T cell responses with Nogo-66 peptides in susceptible mouse strains. To ascertain the potential for Nogo-A to act as a target autoantigen for autoimmune demyelination, we chose to focus on the exposed extracellular 66-amino acid loop, Nogo-66, since this should be the region most prone to interaction with immune cells. EAE susceptible SJL/J and C57BU6 female mice of the appropriate age were subcutaneously immunized with Nogo-66 derived peptides in CFA, in various concentration ranging from 200 μg to 1000 μg, together with intravenous administration of Pertussis toxin.
Three different arbitrarily selected peptides were synthesized to encompass the whole sequence (peptides 1-22, 23-44 and 45-66). […] To evaluate the generation of a T cell proliferative response against the immunizing antigen, we collected draining lymph nodes at the end of the experiments and setup whole lymph node cell proliferation assays against our panel of Nogo and irrelevant peptides. […] Therefore, T cell epitopes appear to be slightly different between these two strains.
(§1) Immunization. For Nogo immunizations, SJL/J and C57BU6 female mice were injected subcutaneously with Nogo-peptide emulsions (concentrations ranging from 100 μg to 500 μg per injection) in CFA, consisting of IFA (Difco) and 1 mg/ml heat-inactivated Mycobacterium tuberculosis (strain H37RA; Difco laboratories, Detroit Mich.). Animals received two subcutaneous injections a week apart in different sites (flank and groin); at the time of the second immunization and 48 hours later, mice were injected intravenously with Bordetella pertussis toxin (List Laboratories) in PBS, 500 ng/animal; For Nogo-A/B/C knockouts, animals were immunized subcutaneously with 100 μg of MOG35-55 peptide emulsion in CFA and received two intravenous injections of 300 ng of Bordetella pertussis toxin, at the time of immunization and 48 hours later. Chronic EAE was induced in SJL/J mice by subcutaneous injection of 100 mg of PLP139-151 peptide emulsion in CFA. Animals were clinically scored daily according to the following scale: 0-normal; 1-tail paralysis; 2-hind limb paraparesis; 3-complete hind limb paralysis; 4-forelimb paresis or paralysis; 5-death.
Proliferation assays. Whole lymph node cells were cultured in 96-well microtiter plates at 0.5×10^6 cells/well. Culture medium consisted of RPMI 1640 supplemented with L-glutamine (2 mM), sodium pyruvate (1 mM), non-essential amino acids (0.1 mM), penicillin (100 U/ml), streptomycin (0.1 mg/ml), 2-ME (5×10^−5 M) and 10% fetal bovine serum. Wells were pulsed with 1 μCi [^3H]TdR for the final 16 hours of culture, and incorporated radioactivity was measured using a betaplate scintillation counter.

[3] = test system: myelin antigens (2304-feature spotted peptide array, 293 distinct antigens); assay: antibody (B cell) response of sera from immunized animals on spotted peptide array; type: in vivo, mice; settings: for epitope spreading of the B cell response to other myelin antigens: sera on proteome array, statistical and cluster analysis
Excerpt: Nogo-66 peptide immunization induces a B cell response with epitope spreading to other myelin antigens. To follow the induction of a specific antibody response to the immunizing Nogo peptides, and the possible spread to other myelin antigens, we used an 2304-feature spotted peptide array developed in our laboratory that contains 293 distinct antigens including proteins and sets of overlapping peptides representing all major EAE-relevant targets and several Nogo-66 overlapping peptides together with p472 (Robinson, 2001). Sera from several immunized animals was obtained at different time points after EAE induction with all three Nogo peptides, and hybridized to the proteome array according to our protocol.
This was particularly relevant after immunization with pNogo45-66 in both strains, and with pNogo23-44 for C57BU6 mice. Spreading of the B cell response evidenced a specific pattern for each immunizing antigen within each strain, with very little overlap between them.
as §1, with “Chronic EAE was induced in SJL/J mice by subcutaneous injection of 100 mg of PLP139-151 peptide emulsion in CFA.” left out

[4] = test system: whole lymph node cells (T cells, dendritic cells); assay: FACScan analysis of activation markers and co-stimulatory molecules after immunization; type: cell-based, mice; settings: female SJL/J, 10 days post-immunization; compared with PLP139-151
Excerpt: We purified whole lymph node cells from female SJL/J animals 10 days post-immunization with PLP139-151, pNogo1-22 and pNogo45-66 and looked at the expression of several activation markers and co-stimulatory molecules by fluorescence activated cell scan (FACScan) analysis. […] Nogo-peptides are capable of normal presentation by APC and immunization leads to normal activation of T cells.

[5] = test system: EAE in SJL/J mice; assay: adoptive transfer of Nogo-reactive T cells into SJL/J mice with PLP139-151 induced EAE; type: in vivo; settings: cells of EAE animals that received TCL; compared with PLP139-151
Experimental: We induced EAE in SJL/J mice by immunization with 100 μg of PLP139-151 peptide in CFA and followed these animals for disease course. At the peak of second relapse (day 31), animals were randomized into three groups and received either weekly PBS, anti-pNogo1-22 or anti-pNogo45-66 reactive T cells in PBS (average of 15 million cells), by intravenous administration for three weeks. […] For these animals, this improvement was maintained throughout the next 45 days of the experiment, up to 30 days after the last TCL administration.
Immunization. For Nogo immunizations, SJL/J and C57BU6 female mice were injected subcutaneously with Nogo-peptide emulsions (concentrations ranging from 100 μg to 500 μg per injection) in CFA, consisting of IFA (Difco) and 1 mg/ml heat-inactivated Mycobacterium tuberculosis (strain H37RA; Difco laboratories, Detroit Mich.). […] Animals were clinically scored daily according to the following scale: 0-normal; 1-tail paralysis; 2-hind limb paraparesis; 3-complete hind limb paralysis; 4-forelimb paresis or paralysis; 5-death.
Proliferation assays. […] Wells were pulsed with 1 μCi [^3H]TdR for the final 16 hours of culture, and incorporated radioactivity was measured using a betaplate scintillation counter.

[6] = target: Bi MOG35-55 BIOTIN; assay: myelin antigen microarray, serum antibody binding to spotted feature 'Bi MOG35-55 BIOTIN'

Anti-mouse IgG/M (antibody)
microarray signal (quantity and unit not named on the sheet) [1]: 50000

Nogo23-44 (LESEVAISEELVQKYSNSALGH; SEQ ID NO:5) [pNogo23-44, peptide 23-44 of the extracellular 66-amino acid loop Nogo-66]
T cell proliferative response against the immunizing antigen ([2]; C57BU6 animals, listed as Ng23-44): T cell reaction
epitope spreading of the B cell response to other myelin antigens [3]: to MOG and MBP peptides (especially in C57BU6 animals)

Nogo45-66 (VNSTIKELRRLFLVDDLVDSLK; SEQ ID NO:2) [pNogo45-66, peptide 45-66 of the extracellular 66-amino acid loop Nogo-66]
T cell proliferative response against the immunizing antigen ([2]; SJL/J animals): strong and specific proliferative response
T cell proliferative response against the immunizing antigen ([2]; SJL/J animals, listed as Ng45-66): T cell reaction
strength as B cell antigen compared with the other peptides ([3]; mouse, in vivo): much stronger B cell antigen than any of the other two synthesized peptides
cell surface expression of CD25, CD18, CD40L, CD62, CD69, CD28 and CTLA4e in T cells or CD80, CD86, CD40 in dendritic cells [4]: could not find any difference
in vitro proliferation at the end of the experiment [5]: much stronger than against the EAE inducing antigen

Nogo 1-22 (RIYKGVIQAIQKSDEGHPFRAY; SEQ ID NO:4) [pNogo1-22, peptide 1-22 of the extracellular 66-amino acid loop Nogo-66]
T cell proliferative response against the immunizing antigen ([2]; C57BU6 animals, listed as Ng1-22): T cell reaction
T cell proliferative response against the immunizing antigen ([2]; SJL/J animals): strong and specific proliferative response
T cell proliferative response against the immunizing antigen ([2]; SJL/J animals, listed as Ng1-22): T cell reaction
epitope spreading of the B cell response to other myelin antigens [3]: mainly to MBP peptides
cell surface expression of CD25, CD18, CD40L, CD62, CD69, CD28 and CTLA4e in T cells or CD80, CD86, CD40 in dendritic cells [4]: could not find any difference

Normal Mouse Serum
microarray signal (quantity and unit not named on the sheet) [6]: 5
